In US20140186263A1, “MALEIMIDE-FUNC[…] NANOPARTICLES” (THE ROYAL INSTITUTION FOR THE ADVANCEMENT OF …, priority 2011, published 2014):

System: blood brain barrier (BBB); brain, cerebellum
Assay: Biodistribution of [18F]-AuNP in rats by small animal micro-PET
Format: in vivo, SD (Sprague-Dawley) rats
Conditions: healthy rats, intravenous injection, micro-PET brain scan
Method: To evaluate the bio-distribution of the AuNPs, [^18F] SiFA-AuNP (12 MBq) were injected into healthy rats (n=3) and evaluated by micro-PET. Representative body and brain scan images of a micro-PET scan following intravenous injection of a solution of [^18F]-SiFA-AuNP are illustrated in FIG. 8. Radioactivity was found in the kidney, liver and spleen.
The time-activity curves obtained from the PET images depicting the radioactivity uptake in the cerebellum and the brain (n=3), using bone radioactivity as a region of reference, are illustrated in FIG. 9 These curves illustrate that AuNPs start to accumulate in the cerebellum and brain at 25-120 min. Ex vivo biodistribution studies were also carried out to confirm the bio-distribution data of [^18F]-SiFA-AuNP in different organs 2 h following injection as obtained by micro-PET. The biodistribution data is illustrated in FIG. 10 and is expressed as the percentage of injected dose for each gram of tissue (% ID/g). […]
Biodistribution of [^18F]-AuNP in Rats by small animal PET: SD (Sprague-Dawley) Rats for in vivo PET studies were housed in a 12 h light/dark cycle at 21° C. with access to food and water ad libitum. […] Respiration rate, heart rate and body temperature were monitored throughout the scan (Biopac sytems MP150, Goleta, Calif., USA). […] The PET images were analyzed using ASIPRO software (Concorde Microsystems). […]

CC(C)(C)[Si](F)(c1ccc(S)cc1)C(C)(C)C [[^18F]-SiFA-SH, ^18F-labeled 4-(di-tert-butylfluorosilanyl)benzenethiol]
crossing of the blood brain barrier (BBB): does not cross the BBB
